Measurements: patent US20250066310A1, “MULTI-SUBSTITUTED URACIL DERIVATIVE AND PREPARATION METHOD THEREFOR AND APPLICATION THEREOF” (HANGZHOU ADAMERCK PHARMLABS INC., priority 2021, published 2025)
Marks after values point to notes of the source that are not given here.

Tests used:
[1] = test system: rats with focal permanent cerebral ischemia (MCAO); assay: Focal permanent cerebral ischemic injury (MCAO), administration from 3 h post-ischemia; assay type: in vivo, SD rats
[2] = test system: ICR mice; assay: Effect on in vivo bleeding time in mice (tail cut)
Description: A normal control group (blank), positive control group (clopidogrel) and experimental groups were set up with 10 ICR mice (male, weighed about 25 g) in each group. Animals in each group were administered the corresponding drug solution by oral gavage (i.g.) at 0.1 ml/10 g body weight, and the blank control group was given distilled water, once daily for 4 days. On the 4th day, 1 h after the administration of the drug, the animals were anesthetized by intraperitoneal injection of sodium barbiturate at a dose of about 50 mg/kg, and 20 min later, the tails of the mice were cut at a distance of 3 mm from the tip of the tail, and at regular intervals, absorbent paper was used to dip the blood at the severed tails until no blood exuded, which was recorded as the bleeding time, and the results of the experiment were shown in Table 2.
Calculation equation for prolongation of bleeding time: […]

[3] = test system: mice injected with ellagic acid via the tail vein; assay: Effect on in vivo clotting time in mice (ellagic acid tail vein injection); conditions: Mus musculus, iv, 100 mg/kg i.g. for 4 days, ellagic acid i.v. 1 h after last dose, vs model group, read-out: Clotting time prolongation (%)
Description: The control and model groups were gavaged with distilled water, and the positive clopidogrel group, and the test substance group were gavaged orally (i.g.) with drug solution in a volume of 0.1 mL/10 g for 4 consecutive days. 1 h after the last administration, all groups were injected with 0.15 mL/10 g of 0.3% ellagic acid solution via tail vein injection except for the blank group which was injected with physiological saline: 0.1 ml/10 g. After 5 min, glass capillaries were used for blood collection through the retro-orbital venous plexus, and the appearance time of coagulation filaments was recorded by glass capillaries at 10-second intervals.
Calculation equation for prolongation of clotting time:
Prolongation of clotting time (%)=[(mean value of clotting time in blank or administered group/mean value of clotting time in model group)−1]×100%

[4] = test system: rats with myocardial ischemia-reperfusion injury; assay: Myocardial ischemia-reperfusion injury caused by coronary artery ligation in rats; assay type: in vivo; conditions: x ± s, n = 8
Description: Experimental Methods: A model of myocardial ischemia/reperfusion (MI/R) injury caused by coronary artery ligation was established in rats, and animals were grouped into high-dose (20 mg/kg), medium-dose (10 mg/kg), low-dose (5 mg/kg) of the test drug, clopidogrel (7.5 mg/kg), sham, and model groups. Equal volume of 0.5% CMC-Na was administered at 0.5 ml/100 g body weight in both sham and model groups. The drug was administered by gavage (i.g.) once a day for 5 consecutive days. Modeling was performed 30 min after the last administration, and after modeling, 8 successfully modeled rats were selected from each group for subsequent experiments. The sham group was placed a wire under the left anterior descending branch of the coronary artery according to the model preparation method without ligation, and the other groups were modeled according to the model preparation method. The effects of the test drugs on the cardiac infarction rate and the biochemical indexes of creatine kinase (CK), lactate dehydrogenase (LDH), malondialdehyde (MDA), and superoxide dismutase (SOD) in plasma were detected, and TTC staining of the heart was performed to detect the effects of the test drugs on the area of myocardial infarction in MI/R rats.

[5] = test system: acute inflammatory response caused by ellagic acid (serum cytokines); assay: Antibody microarray detection of serum factors in ellagic acid model mice; assay type: in vivo, ICR mice; design: TNFa / IL-6 / IL-1b / IL-5 / IL-13 / IL-1α / IL-1β / IL-2 / IL-3 / IL-4 / IFNg / CD40: unit not given here
Description: Experimental methods: ICR male mice, weighed about 25 g, were randomly divided into four groups: normal group, ellagic acid model group, 1-1 group, and 1-22 group, with four mice in each group. Mice in 1-1 group and 1-22 group were given 1-1, 100 mg/kg and 1-22, 100 mg/kg by gavage once a day respectively. 1 h after the third administration, except for the normal control group, the other three groups of mice were injected into the tail vein with 0.10 mL/10 g of 0.3% ellagic acid saline solution, and 1 h after injection, whole blood was collected from each animal, and centrifuged (3,000 rpm/min) for 10 min after 30 min of standing, and then centrifuged to obtain the serum. The serum from each group of animal was mixed in an EP tube, transported at −80° C., and sent for antibody microarray detection.

[6] = 100 mg/kg i.g. once daily for 4 days
[7] = Table 16, pooled serum, 100 mg/kg by gavage
[8] = Table 17, pooled serum, 100 mg/kg by gavage
[9] = Table 18, pooled serum, 100 mg/kg by gavage
[10] = Table 19, pooled serum, 100 mg/kg by gavage

SMILES | change in vivo at 100 mg/kg [3] [%] | Bleeding time prolongation (%) [2, 6] [%] | other results
CCCCC1OC(=O)c2ccccc21 (centres unmarked) [Butylphthalide, butylphthalide, reference compound] |  |  | Number of survivors after 15 days animal ([1]; 60 mg/kg by gavage once a day, 15 enrolled): 7; Mortality (%) ([1]; 15-day, 60 mg/kg by gavage): 53.33%; Neurological function score on day 15 ([1]; Bederson's method, 60 mg/kg): 1.25; Weight on day 1 ([1]; mean body weight, 60 mg/kg): 281.00 g; Weight on day 5 ([1]; mean body weight, 60 mg/kg): 234.27 g; Weight on day 15 ([1]; mean body weight, 60 mg/kg): 276.75 g
COC(=O)[C@H](c1ccccc1Cl)N1CCc2sccc2C1 [Clopidogrel, clopidogrel, reference compound] | 36.8 |  | Bleeding time prolongation (%) ([2]; 15 mg/kg i.g. once daily for 4 days): >579.89%; Cardiac infarction rate (%) ([4]; 7.5 mg/kg i.g. once a day for 5 days): 14.29 ± 6.82 %; Pathological Score ([4]; myocardium, 7.5 mg/kg i.g.): 1.88 ± 0.64; CK (U/mL) ([4]; plasma, 7.5 mg/kg i.g.): 0.32 ± 0.20 U/mL; LDH (U/L) ([4]; plasma, 7.5 mg/kg i.g.): 8522.72 ± 626.17 U/L; MDA ([4]; plasma, 7.5 mg/kg i.g.): 15.90 ± 1.37 nmol/mL; SOD (U/mL) ([4]; plasma, 7.5 mg/kg i.g.): 40.92 ± 1.67 U/mL
CC(C)OC(=O)CCNC(=O)CCNc1cc(=O)n(C)c(=O)n1C [Compound 1-2] | 49.9 | 6.50 | 
Cn1c(NCCC(=O)NCCC(=O)OC2CC3CCC2(C)C3(C)C)cc(=O)n(C)c1=O (centres unmarked) [Compound 1-4] | 39.7 | 16.40 | 
Cn1c(NCCC(=O)NCCC(=O)OC2CC2)cc(=O)n(C)c1=O [Compound 1-5] | 41.9 | −13.60 | 
Cn1c(NCCC(=O)NCCC(=O)OC2CCCCC2)cc(=O)n(C)c1=O [Compound 1-6] | 42.4 | 4.80 | 
Cn1c(NCCC(=O)NCCC(=O)Oc2ccccc2)cc(=O)n(C)c1=O [Compound 1-7] | 41.7 | 15.10 | 
Cc1cccc(C)c1OC(=O)CCNC(=O)CCNc1cc(=O)n(C)c(=S)n1C [Compound 1-11] | 39.3 | 20.60 | 
CC(C)OC(=O)CCNC(=O)CCNc1cc(=O)n(C)c(=O)n1Cc1cc(F)ccc1C#N [Compound 1-13] | 39.8 | 15.60 | 
Cn1c(=O)cc(NCCC(=O)NCCC(=O)Oc2ccccc2)n(Cc2cc(F)ccc2C#N)c1=O [Compound 1-15] | 42 | −4.70 | 
CC1CCC(C(C)C)C(OC(=O)CCNC(=O)CCNc2cc(=O)n(C)c(=O)n2Cc2cc(F)ccc2C#N)C1 (centres unmarked) [Compound 1-16] | 38 | 11.00 | 
CCOC(=O)CCNC(=O)CCNc1cc(=O)n(C)c(=O)n1Cc1ccccc1C#N [Compound 1-17] | 44.1 | −6.20 | 
CCOC(=O)CCNC(=O)CCNc1cc(=O)n(C)c(=O)n1Cc1cc(F)ccc1C#N [Compound 1-18] | 42.9 | 13.30 | 
Cc1cccc(C)c1OC(=O)CCNC(=O)CCNc1cc(=O)n(C)c(=O)n1Cc1cc(F)ccc1C#N [Compound 1-19] | 60.4 | −38.00 | 
CCOC(=O)CCNC(=O)[C@H](Nc1cc(=O)n(C)c(=O)n1C)C(C)CC (some centres unmarked) [Compound 1-22] | 40.7 | 19.83 | IL-6 [5, 7]: 10,273.27*; RANTES/ccl5 [5, 7]: 1,909.28*; TNFa [5, 7]: 290.22*; IL-1b ([5]; Table 16, pooled serum, 100 mg/kg by gavage once a day x3, 1 h after ellagic acid): 268.76*; IL-1α [5, 8]: 837.49*; IL-1β [5, 8]: 268.76*; IL-2 [5, 8]: 464.49; IL-3 [5, 8]: 872.26*; IL-4 [5, 8]: 961.11*; IL-5 [5, 8]: 227.55*; IL-6 [5, 8]: 10,273.27*; IL-13 [5, 8]: 620.73*; Eotaxin/CCL11 [5, 9]: 3,096.53*; MCP1/CCL2 [5, 9]: 2,231.63*; MIP-3a/CCL20 [5, 9]: 1,252.13*; RANTES/CCL5 [5, 9]: 1,909.28*; CD40 [5, 10]: 509.56*; IFNg [5, 10]: 218.11*; number of down-regulated differential proteins ([5]; interleukin factors (Table 17), compared with the model group): seven
CCOC(=O)CCCCCNC(=O)CCCCCNc1cc(=O)n(C)c(=O)n1C [Compound 1-23] | 38.1 | −19.20 | 
Cn1c(NCCCCCC(=O)NCCCCCC(=O)O)cc(=O)n(C)c1=O [Compound 1-24] | 36.7 | 20.60 | 
CC(C)OC(=O)CCNC(=O)CCNc1cc(=O)n(Cc2ccccc2)c(=O)n1Cc1ccccc1 [Compound 1-26] | 40.4 | −13.30 | 
CC(C)OC(=O)CCNC(=O)CCNc1cc(=O)n(C)c(=O)n1Cc1cccnc1 [Compound 1-27] | 39.5 | 23.50 | 
Cn1c(=O)cc(NCCC(=O)NCCC(=O)Oc2ccccc2)n(Cc2ccccc2)c1=O [Compound 1-30] | 39.8 | −9.70 | 
CC1CCC(C(C)C)C(OC(=O)CCNC(=O)CCNc2cc(=O)n(C)c(=O)n2Cc2cccnc2)C1 (centres unmarked) [Compound 1-32] | 48.4 | −9.00 | 
CC(C)OC(=O)CCNC(=O)CCNc1cc(=O)n(Cc2cccnc2)c(=O)n1Cc1cccnc1 [Compound 1-34] | 53.5 | −2.10 | 
CCOC(=O)CCNC(=O)[C@@H](Nc1cc(=O)n(C)c(=O)n1C)C(C)CC (some centres unmarked) [Compound 1-37] | 32.6 | 48.80 | 
CCOC(=O)CCCCCNC(=O)CCCCCNc1cc(=O)[nH]c(=O)[nH]1 [Compound 1-38] | 37.5 | 28.40 | 
CCOC(=O)CCNC(=O)CCNc1cc(=O)[nH]c(=N)[nH]1 [Compound 1-39] | 37.2 | 16.90 | 
CCOC(=O)[C@H](NC(=O)CCNc1cc(=O)n(C)c(=O)n1C)C(C)C [Compound 1-42] | 41.4 | −13.40 | 
CC(C)OC(=O)CCNC(=O)CCN(C)c1cc(=O)n(C)c(=O)n1Cc1cc(F)ccc1C#N [Compound 1-45] | 43.1 | 18.60 | 
CCOC(=O)CCCCNC(=O)CCCCNC(=O)CCCCNc1cc(=O)n(C)c(=O)n1C [Compound 1-48] | 38.6 | 26.40 | 
CCOC(=O)CCNC(=O)CCNc1cc(=O)n(C2CCCC2)c(=O)n1C1CCCC1 [Compound 1-54] | 37.2 | 13.00 | 
CCOC(=O)CCNC(=O)CCNc1cc(=O)n(Cc2cccnc2)c(=O)n1Cc1cccnc1 [Compound 1-55] | 38.6 | −3.10 | 
